This passage reports IC50 results from ChEMBL document CHEMBL1142647, “Potent pyrimidinetrione-based inhibitors of MMP-13 with enhanced selectivity over MMP-14” (Bioorg Med Chem Lett, 2005).

The assay concerns the target Collagenase 3 (Homo sapiens, UniProt P45452). The assay is described as follows: Inhibitory concentration against matrix metalloprotease 13.

Structures are written as SMILES.

The compound `CC1(Oc2ccc(Cl)cc2)C(=O)NC(=O)NC1=O` returned an IC50 of 0.39 µM.

Turning to `CCCCC1(Oc2ccc(Oc3ccc(F)cc3)cc2)C(=O)NC(=O)NC1=O`, the IC50 was found to be 0.002 µM.

What is called IC50 is the point on the concentration scale where inhibition reaches its midpoint.
